*1 amine or outer side, *2 acyl side, *3 side chain or, on linkers, in order; H or OH if unused. Where a SMILES comes first, the peptide text is derived from it. Side-chain parts run from the residue outwards. [ ]: non-standard residue; d: D form. The star is where a group is joined. X1 = O=C(O)CCCCCCCCCCCCCCCCCCC(=O)NCC1CCC(C(=O)*)CC1; C20 diacid = O=C(O)CCCCCCCCCCCCCCCCCCC(=O)*; γGlu = O=C(O)[C@H](CCC(=O)[*:2])N[*:1]; εLys = N[C@@H](CCCCN[*:1])C(=O)[*:2]; AEEA = NCCOCCOCC(=O)O; Aib = CC(C)(N)C(=O)O
Tests used:
[1] = Pharmacokinetic study in minipigs, i.v. administration; set-up: species or system Göttingen minipigs; details: minipig, in vivo, iv
Protocol: The purpose of this example is to determine the half-life in vivo of the triple agonists as described herein after i.v. administration to minipigs, i.e. the prolongation of their time in the body and thereby their time of action. This is done in a pharmacokinetic (PK) study, where the terminal half-life of the triple agonist in question is determined. By terminal half-life is generally meant the period of time it takes to halve a certain plasma concentration, measured after the initial distribution phase.
Female Göttingen minipigs were obtained from Ellegaard Göttingen Minipigs (Dalmose, Denmark) approximately 7-14 months of age and weighing from approximately 16-35 kg were used in the studies. The minipigs were housed individually and fed restrictedly once daily with SDS minipig diet (Special Diets Services, Essex, UK).
After at 3 weeks of acclimatisation two permanent central venous catheters were implanted in vena cava caudalis in each animal. The animals were allowed 1 week recovery after the surgery, and were then used for repeated pharmacokinetic studies with a suitable wash-out period between successive dosings.
The animals were fasted for approximately 18 hours before dosing and from 0 to 4 hours after dosing, but had adlibitum access to water during the whole period.
Intravenous injections (the volume corresponding to usually 1.5-2 nmol/kg, for example 0.1 mL/kg) of the triple agonists were given through one catheter, and blood was sampled at predefined time points for up to 14 days post dosing (preferably through the other catheter). Blood samples (for example 0.8 mL) were collected in 8 mM EDTA buffer and then centrifuged at 4° C. and 1942 g for 10 minutes.
Plasma was pipetted into Micronic tubes on dry ice and kept at −20° C. until analysed for plasma concentration of the triple agonists using ELISA, or a similar antibody-based assay, or LCMS. Individual plasma concentration-time profiles were analysed by a non-compartmental model in Phoenix WinNonLin ver. 6.4. (Pharsight Inc., Mountain View, CA, USA), and the resulting terminal half-lives (harmonic mean) determined.

human GLP-1 receptor = biological target: T1, human GLP-1 receptor (Homo sapiens, UniProt P43220); test: In vitro functional potency (CRE luciferase; whole cells), human GLP-1R; assay type: cell-based; details: BHK CRE luc2P hGLP-1R whole cells; Table 2; read-out: hGLP-1R CRE Luc EC50
T1 construct: expressed in transfected cells; host or cells: BHK cells (parent line BHKTS13) containing CRE luciferase
T1 sequence (P43220 24-463): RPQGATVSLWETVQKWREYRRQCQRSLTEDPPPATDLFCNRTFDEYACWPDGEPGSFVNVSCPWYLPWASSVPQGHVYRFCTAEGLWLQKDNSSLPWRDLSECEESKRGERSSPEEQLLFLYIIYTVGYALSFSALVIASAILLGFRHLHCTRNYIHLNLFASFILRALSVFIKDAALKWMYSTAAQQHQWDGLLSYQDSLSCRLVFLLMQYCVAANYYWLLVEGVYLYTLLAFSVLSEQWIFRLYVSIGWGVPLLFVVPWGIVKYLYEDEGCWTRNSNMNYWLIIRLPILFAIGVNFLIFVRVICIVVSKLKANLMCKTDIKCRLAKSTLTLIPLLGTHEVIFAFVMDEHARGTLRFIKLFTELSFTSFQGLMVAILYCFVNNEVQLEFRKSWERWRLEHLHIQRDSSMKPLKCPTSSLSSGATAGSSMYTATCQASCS

SMILES	EC50 (human GLP-1 receptor) [pM]	further results
CC[C@H](C)[C@H](NC(=O)[C@H](CO)NC(=O)[C@H](Cc1ccc(O)cc1)NC(=O)[C@H](CC(=O)O)NC(=O)[C@H](CO)NC(=O)[C@@H](NC(=O)[C@H](Cc1ccccc1)NC(=O)[C@@H](NC(=O)CNC(=O)[C@H](CCC(N)=O)NC(=O)C(C)(C)NC(=O)[C@@H](N)Cc1ccc(O)cc1)[C@@H](C)O)[C@@H](C)O)C(=O)N[C@@H](Cc1ccc(O)cc1)C(=O)N[C@@H](CC(C)C)C(=O)N[C@@H](CC(=O)O)C(=O)N[C@@H](CCCCNC(=O)COCCOCCNC(=O)COCCOCCNC(=O)CC[C@H](NC(=O)CCCCCCCCCCCCCCCCCCC(=O)O)C(=O)O)C(=O)N[C@@H](CCC(N)=O)C(=O)N[C@@H](C)C(=O)N[C@@H](C)C(=O)NC(C)(C)C(=O)N[C@@H](CCC(=O)O)C(=O)N[C@@H](Cc1ccccc1)C(=O)N[C@H](C(=O)N[C@@H](CC(N)=O)C(=O)N[C@@H](Cc1c[nH]c2ccccc12)C(=O)N[C@@H](CC(C)C)C(=O)N[C@@H](CC(C)C)C(=O)N[C@@H](C)C(=O)NCC(=O)NCC(=O)N1CCC[C@H]1C(=O)N[C@@H](CO)C(=O)N[C@@H](CO)C(=O)NCC(=O)N[C@@H](C)C(=O)N1CCC[C@H]1C(=O)N1CCC[C@H]1C(=O)N1CCC[C@H]1C(=O)N[C@@H](CO)C(N)=O)C(C)C [Compound No. 5] (H-Y[Aib]QGTFTSDYSIYLDK([AEEA-AEEA-γGlu-C20 diacid])QAA[Aib]EFVNWLLAGGPSSGAPPPS-NH2; N-terminus assumed)	–	half-life ([1]; female, Göttingen): 85 h
CC[C@H](C)[C@H](NC(=O)[C@H](CO)NC(=O)[C@H](Cc1ccc(O)cc1)NC(=O)[C@H](CC(=O)O)NC(=O)[C@H](CO)NC(=O)[C@@H](NC(=O)[C@H](Cc1ccccc1)NC(=O)[C@@H](NC(=O)CNC(=O)[C@H](CCC(N)=O)NC(=O)C(C)(C)NC(=O)[C@@H](N)Cc1ccc(O)cc1)[C@@H](C)O)[C@@H](C)O)C(=O)N[C@@H](Cc1ccc(O)cc1)C(=O)N[C@@H](CC(C)C)C(=O)N[C@@H](CC(=O)O)C(=O)N[C@@H](CCCCNC(=O)COCCOCCNC(=O)COCCOCCNC(=O)CC[C@H](NC(=O)C1CCC(CNC(=O)CCCCCCCCCCCCCCCCCCC(=O)O)CC1)C(=O)O)C(=O)N[C@@H](CCC(N)=O)C(=O)N[C@@H](C)C(=O)N[C@@H](C)C(=O)NC(C)(C)C(=O)N[C@@H](CCC(=O)O)C(=O)N[C@@H](Cc1ccccc1)C(=O)N[C@H](C(=O)N[C@@H](CC(N)=O)C(=O)N[C@@H](Cc1c[nH]c2ccccc12)C(=O)N[C@@H](CC(C)C)C(=O)N[C@@H](CC(C)C)C(=O)N[C@@H](C)C(=O)NCC(=O)NCC(=O)N1CCC[C@H]1C(=O)N[C@@H](CO)C(=O)N[C@@H](CO)C(=O)NCC(=O)N[C@@H](C)C(=O)N1CCC[C@H]1C(=O)N1CCC[C@H]1C(=O)N1CCC[C@H]1C(=O)N[C@@H](CO)C(N)=O)C(C)C (stereo partly drawn) [Compound No. 6] (H-Y[Aib]QGTFTSDYSIYLDK([AEEA-AEEA-γGlu-X1])QAA[Aib]EFVNWLLAGGPSSGAPPPS-NH2)	–	half-life [1]: 83 h
CC[C@H](C)[C@H](NC(=O)[C@H](CO)NC(=O)[C@H](Cc1ccc(O)cc1)NC(=O)[C@H](CC(=O)O)NC(=O)[C@H](CO)NC(=O)[C@@H](NC(=O)[C@H](Cc1ccccc1)NC(=O)[C@@H](NC(=O)CNC(=O)[C@H](CCC(N)=O)NC(=O)C(C)(C)NC(=O)[C@@H](N)Cc1ccc(O)cc1)[C@@H](C)O)[C@@H](C)O)C(=O)N[C@@H](Cc1ccc(O)cc1)C(=O)N[C@@H](CC(C)C)C(=O)N[C@@H](CCC(=O)O)C(=O)N[C@@H](CCCCN)C(=O)N[C@@H](CCC(N)=O)C(=O)N[C@@H](C)C(=O)N[C@@H](C)C(=O)NC(C)(C)C(=O)N[C@@H](CCCCNC(=O)COCCOCCNC(=O)COCCOCCNC(=O)CC[C@H](NC(=O)C1CCC(CNC(=O)CCCCCCCCCCCCCCCCCCC(=O)O)CC1)C(=O)O)C(=O)N[C@@H](Cc1ccccc1)C(=O)N[C@H](C(=O)N[C@@H](CCC(N)=O)C(=O)N[C@@H](Cc1c[nH]c2ccccc12)C(=O)N[C@@H](CC(C)C)C(=O)N[C@@H](CC(C)C)C(=O)N[C@@H](CCC(=O)O)C(=O)NCC(=O)NCC(=O)N1CCC[C@H]1C(=O)N[C@@H](CO)C(=O)N[C@@H](CO)C(=O)NCC(=O)N[C@@H](C)C(=O)N1CCC[C@H]1C(=O)N1CCC[C@H]1C(=O)N1CCC[C@H]1C(=O)N[C@@H](CO)C(N)=O)C(C)C (stereo partly drawn) [Compound No. 11] (H-Y[Aib]QGTFTSDYSIYLEKQAA[Aib]K([AEEA-AEEA-γGlu-X1])FVQWLLEGGPSSGAPPPS-NH2; N-terminus assumed)	4.3	–
CC[C@H](C)[C@H](NC(=O)[C@H](CO)NC(=O)[C@H](Cc1ccc(O)cc1)NC(=O)[C@H](CC(=O)O)NC(=O)[C@H](CO)NC(=O)[C@@H](NC(=O)[C@H](Cc1ccccc1)NC(=O)[C@@H](NC(=O)CNC(=O)[C@H](CCC(N)=O)NC(=O)C(C)(C)NC(=O)[C@@H](N)Cc1ccc(O)cc1)[C@@H](C)O)[C@@H](C)O)C(=O)N[C@@H](Cc1ccc(O)cc1)C(=O)N[C@@H](CC(C)C)C(=O)N[C@@H](CCC(=O)O)C(=O)N[C@@H](CCCCNC(=O)[C@@H](N)CCCCNC(=O)[C@@H](N)CCCCNC(=O)CC[C@H](NC(=O)CCCCCCCCCCCCCCCCCCC(=O)O)C(=O)O)C(=O)N[C@@H](CCC(N)=O)C(=O)N[C@@H](C)C(=O)N[C@@H](C)C(=O)NC(C)(C)C(=O)N[C@@H](CCC(=O)O)C(=O)N[C@@H](Cc1ccccc1)C(=O)N[C@H](C(=O)N[C@@H](CCC(N)=O)C(=O)N[C@@H](Cc1c[nH]c2ccccc12)C(=O)N[C@@H](CC(C)C)C(=O)N[C@@H](CC(C)C)C(=O)N[C@@H](CCC(=O)O)C(=O)NCC(=O)NCC(=O)N1CCC[C@H]1C(=O)N[C@@H](CO)C(=O)N[C@@H](CO)C(=O)NCC(=O)N[C@@H](C)C(=O)N1CCC[C@H]1C(=O)N1CCC[C@H]1C(=O)N1CCC[C@H]1C(=O)N[C@@H](CO)C(N)=O)C(C)C [Compound No. 17] (H-Y[Aib]QGTFTSDYSIYLEK([εLys-εLys-γGlu-C20 diacid])QAA[Aib]EFVQWLLEGGPSSGAPPPS-NH2)	2.8	–
CC[C@H](C)[C@H](NC(=O)[C@H](CO)NC(=O)[C@H](Cc1ccc(O)cc1)NC(=O)[C@H](CC(=O)O)NC(=O)[C@H](CO)NC(=O)[C@@H](NC(=O)[C@H](Cc1ccccc1)NC(=O)[C@@H](NC(=O)CNC(=O)[C@H](Cc1c[nH]cn1)NC(=O)C(C)(C)NC(=O)[C@@H](N)Cc1c[nH]cn1)[C@@H](C)O)[C@@H](C)O)C(=O)N[C@@H](Cc1ccc(O)cc1)C(=O)N[C@@H](CC(C)C)C(=O)N[C@@H](CCC(=O)O)C(=O)N[C@@H](CCCCNC(=O)[C@@H](N)CCCCNC(=O)[C@@H](N)CCCCNC(=O)CC[C@H](NC(=O)CCCCCCCCCCCCCCCCCCC(=O)O)C(=O)O)C(=O)N[C@@H](CCCNC(=N)N)C(=O)N[C@@H](C)C(=O)N[C@@H](C)C(=O)NC(C)(C)C(=O)N[C@@H](CCC(=O)O)C(=O)N[C@@H](Cc1ccccc1)C(=O)N[C@H](C(=O)N[C@@H](CCC(N)=O)C(=O)N[C@@H](Cc1c[nH]c2ccccc12)C(=O)N[C@@H](CC(C)C)C(=O)N[C@@H](CC(C)C)C(=O)N[C@@H](CCC(=O)O)C(=O)NCC(=O)NCC(=O)N1CCC[C@H]1C(=O)N[C@@H](CO)C(=O)N[C@@H](CO)C(=O)NCC(=O)N[C@@H](C)C(=O)N1CCC[C@H]1C(=O)N1CCC[C@H]1C(=O)N1CCC[C@H]1C(=O)N[C@@H](CO)C(N)=O)C(C)C [Compound No. 37] (H-H[Aib]HGTFTSDYSIYLEK([εLys-εLys-γGlu-C20 diacid])RAA[Aib]EFVQWLLEGGPSSGAPPPS-NH2; N-terminus assumed)	1.8	–
CC[C@H](C)[C@H](NC(=O)[C@H](CO)NC(=O)[C@H](Cc1ccc(O)cc1)NC(=O)[C@H](CC(=O)O)NC(=O)[C@H](CO)NC(=O)[C@@H](NC(=O)[C@H](Cc1ccccc1)NC(=O)[C@@H](NC(=O)CNC(=O)[C@H](Cc1c[nH]cn1)NC(=O)C(C)(C)NC(=O)[C@@H](N)Cc1c[nH]cn1)[C@@H](C)O)[C@@H](C)O)C(=O)N[C@@H](CC(C)C)C(=O)N[C@@H](CC(C)C)C(=O)N[C@@H](CCC(=O)O)C(=O)N[C@@H](CCCCNC(=O)[C@@H](N)CCCCNC(=O)[C@@H](N)CCCCNC(=O)CC[C@H](NC(=O)CCCCCCCCCCCCCCCCCCC(=O)O)C(=O)O)C(=O)N[C@@H](CCC(N)=O)C(=O)N[C@@H](C)C(=O)N[C@@H](C)C(=O)N[C@@H](CCCNC(=N)N)C(=O)N[C@@H](CCC(=O)O)C(=O)N[C@@H](Cc1ccccc1)C(=O)N[C@H](C(=O)N[C@@H](CCC(N)=O)C(=O)N[C@@H](Cc1c[nH]c2ccccc12)C(=O)N[C@@H](CC(C)C)C(=O)N[C@@H](CC(C)C)C(=O)N[C@@H](CCC(=O)O)C(=O)NCC(=O)NCC(=O)N1CCC[C@H]1C(=O)N[C@@H](CO)C(=O)N[C@@H](CO)C(=O)NCC(=O)N[C@@H](C)C(=O)N1CCC[C@H]1C(=O)N1CCC[C@H]1C(=O)N1CCC[C@H]1C(=O)N[C@@H](CO)C(=O)O)C(C)C [Compound No. 55] (H-H[Aib]HGTFTSDYSILLEK([εLys-εLys-γGlu-C20 diacid])QAAREFVQWLLEGGPSSGAPPPS-OH; N-terminus assumed)	2	–
